Literature values as cited in publication PMC8287861 (Frontiers in Microbiology, 2021).
Converted amounts (≈) assume the structure as drawn. Read-outs that look alike come from different tables or passages of the source.

What was measured:
[1] = tested on: KPC-producing strains of Klebsiella pneumoniae and blaKPC mutants; set-up: method as in Nelson et al., 2019; details: ref Nelson et al., 2019
Pseudomonas aeruginosa = tested on: Pseudomonas aeruginosa; set-up: method as in Lomovskaya et al. (2021); details: ref Lomovskaya et al. (2021); for MIC50 / MIC90: challenge panel, QPX7728 at 8 μg/ml
PAM4827 OXA-1 = tested on: PAM4827 OXA-1; set-up: method as in Lomovskaya et al. (2020b); details: PAM4827, OXA-1, class D; ref Lomovskaya et al. (2020b)
PAM4938 VCC-1 = tested on: PAM4938 VCC-1; set-up: method as in Lomovskaya et al. (2020b); details: PAM4938, VCC-1, class A-CARB; ref Lomovskaya et al. (2020b)

In the case of CC(C)(O/N=C(\C(=O)N[C@@H]1C(=O)N2C(C(=O)[O-])=C(C[n+]3ccccc3)CS[C@H]12)c1csc(N)n1)C(=O)O [Ceftazidime, ceftazidime], the MIC ([1]; KP1074, KPC-3, SHV-11, TEM-1/GD) is given as >128 mg/L, the MIC ([1]; KP1099, KPC-2, SHV-11, SHV-12, CTX-M-14/GD) is given as >128 mg/L and the MIC ([1]; KP1102, KPC-3, TEM-1, SHV-11/GD) is given as >128 mg/L. The MIC ([1]; KP1246, KPC-3, SHV-12, SHV-11/FL) was >128 mg/L, the MIC ([1]; KP1252, KPC-3, TEM-1, SHV-11/FL) was >128 mg/L and the MIC ([1]; KP1317, KPC-3, TEM-1, SHV-11/GD) was >128 mg/L. The MIC ([1]; KP1500, KPC-3, TEM-1, SHV-11, CTX-M-15 OXA-1 OXA-9/IS at −48) was >128 mg/L, the MIC ([1]; KPM3191, KPC-3:: DDK duplication at aa#831 (KPC-29)) was >128 mg/L and the MIC ([1]; KPM3192, KPC-3:: D179Y (KPC-31)) was >128 mg/L. For the same compound, the MIC ([1]; KPM3200, KPC-3::duplication of EAVI (aa#278)) was >128 mg/L, the MIC ([1]; KPM3205, KPC-3 ::duplication of KKDY (aa#273)) was >128 mg/L and the MIC ([1]; KPM3210, KPC-2::D179N) was >128 mg/L. For the same compound, the MIC ([1]; KPM3212, deletion of ELNSAI at aa#497) was >128 mg/L, the MIC ([1]; KPM3213, KPC-2::D179Y (KPC-31), selected from KP1099) was >128 mg/L and the MIC ([1]; KPM3214, KPC-2::D179A) was >128 mg/L. For the same compound, the MIC ([1]; KPM3493, KPC-3::duplication of EL at aa#164 (KPC-25)) was >128 mg/L, the MIC ([1]; KPM3494, KPC-3::R167S) was >128 mg/L and the MIC ([1]; KPM3495, KPC-3::A175V) was >128 mg/L. The MIC ([1]; KPM3511, KPC-3::P174Q) was >128 mg/L, the MIC ([1]; KPM3512, KPC-3:: P174L) was >128 mg/L and the MIC ([1]; KPM3517, KPC-3::D179Y (KPC-31)) was >128 mg/L. For the same compound, the MIC ([1]; KPM3520, Both WT and mutant KPC-3::duplication of 8aa (aa#264–271)) was >128 mg/L, the MIC ([1]; KPM3523, Both WT and mutant KPC-3:: deletion of EL (aa#241–242)) was >128 mg/L and the MIC ([1]; KPM3546, KPC-3::R164H) was >128 mg/L.

In the case of CCN1CCN(C(=O)N[C@@H](C(=O)N[C@@H]2C(=O)N3[C@@H]2SC(C)(C)[C@@H]3C(=O)O)c2ccccc2)C(=O)C1=O [Piperacillin, piperacillin], the “% of isolates shifted by QPX7728 at or below breakpoint” value (Pseudomonas aeruginosa; challenge panel (N = 290), with QPX7728, 8 or 16 μg/ml for cefepime and piperacillin, respectively) is given as 70.3%, the MIC50 (Pseudomonas aeruginosa; All (N = 290)) is given as >64 mg/L and the MIC90 (Pseudomonas aeruginosa; All (N = 290)) is given as >64 mg/L. For the same compound, the MIC50 (Pseudomonas aeruginosa; MBL (N = 61)) was >64 mg/L, the MIC90 (Pseudomonas aeruginosa; MBL (N = 61)) was >64 mg/L and the MIC50 (Pseudomonas aeruginosa; No MBL (N = 229)) was >64 mg/L. The MIC90 (Pseudomonas aeruginosa; No MBL (N = 229)) was >64 mg/L, the MIC (PAM4827 OXA-1) was 4 mg/L (≈ 7.73 µM) and the MIC (PAM4938 VCC-1) was 16 mg/L (≈ 30.9 µM).
